In article PMC5238559, “Biomimetic synthesis and HPLC–ECD analysis of the isomers of dracocephins A and B” (Beilstein Journal of Organic Chemistry, 2016):
Converted amounts (≈) assume the structure as drawn. Like-named read-outs stand apart in the source and are kept apart here.

Tests used:
[1] = pKa determination by aqueous titrations; type: physicochemical; settings: aqueous solution, phenolic hydroxy group
Experimental: (§1) n-octanol. From the n-octanol containing titrations the poKa (the apparent ionization constant in the presence of n-octanol) and then logP values were estimated and refined by a weighted non-linear least-squares procedure, where the aqueous pKa values (taken from aqueous titrations) were used as unrefined contributions. For each compound a minimum of three to six titrations at different phase volume ratios were measured, and the respective average logP values were calculated. logD values were also calculated by logP and pKa values using the Henderson– Hasselbalch equation. The relevant relationships between logP, pKa, and poKa, for mono- and multiprotic substances, including cases of ion-pair formation, have been described in detail earlier. […]

[2] = logP determination by titrations in the presence of n-octanol; logD calculated from logP and pKa; type: physicochemical; settings: n-octanol/water; for logP: lipophilicity of neutral species; for logD: calculated from logP and pKa by Henderson–Hasselbalch equation
Experimental: as §1

[3] = in vitro; type: in vitro ADME; settings: pig, PAMPA, pH 7.4
Experimental: Physicochemical characterization of dracocephins A and B was also carried out. […] Similarly to this lipophilicity trend, the TPSA value of (±)-naringenin is lower than dracocephins A and B, however, there is no difference between the calculated TPSA values of 2a–d and 3a–d. […] Among these proton-dissociation constants, the lowest acidic pKa values are predominant in physiological environment, which is also indicated by the difference of log D values between pH 7.4 and pH 6.5. The blood–brain barrier (BBB) specific penetration of dracocephins isomers has also been studied by the PAMPA (parallel artificial membrane permeability assay)-BBB model system, which indicates passive diffusion of test compounds across the brain capillary endothelium. […]
n-octanol. […] For each compound a minimum of three to six titrations at different phase volume ratios were measured, and the respective average logP values were calculated. logD values were also calculated by logP and pKa values using the Henderson– Hasselbalch equation. […]
(§2) for 4 h. After the incubation, PAMPA sandwich plates are separated and compound concentrations in donor and acceptor solutions are determined by HPLC-DAD. […]
(§3) Cytotoxicity on SH-SY5Y cells: Cytotoxicity on SH-SY5Y cells was measured in an analogous manner as described in the literature. […]

[4] = Cytotoxicity on SH-SY5Y cells (MTT); type: cell-based; settings: human, undifferentiated SH-SY5Y neuroblastoma cells
Experimental: for 4 h. After the incubation, PAMPA sandwich plates are separated and compound concentrations in donor and acceptor solutions are determined by HPLC-DAD.
SH-SY5Y neuroblastoma was cultured in EMEM media supplemented with non-essential amino acids, 1 mM Na pyruvate and 10% inactivated fetal bovine serum, nystatin, 2 mM L-glutamine, 100 U penicillin and 0.1 mg streptomycin, purchased from Sigma. Cells were cultured at 37 °C and 5% CO2. […]
as §3
(§4) were read after o/n incubation. Fifty percent inhibitory concentrations (IC50) were calculated using nonlinear regression curve fitting of log (inhibitor) versus normalized response and variable slope with a least squares (ordinary) fit of GraphPad Prism 5 software, for three independent samples.
Evaluation of compounds effect on rhodamine 123 accumulation: Rd123 concentration inside L5178PAR and L5178MDR cells was determined by flow cytometry.
Briefly, 2 × 10^6 cells/mL were treated with 2 and 20 μM of each compound and incubated for 10 min at rt. […] The fluorescence of the samples was measured by flow cytometry (Becton Dickinson FACScan, BD, U.S.). […]
Fluorescence activity ratio measures the capacity of inhibition (accumulation of Rd123) and it is equal to the ratio between the FL-1 values of the L5178MDR cells […]

[5] = system: P-glycoprotein (P-gp); test: Rhodamine 123 accumulation in P-gp transfected L5178MDR cells; type: cell-based; settings: 2 and 20 μM of compound
Experimental: In connection with the BBB penetration studies, 2a–d and 3a–d were tested for their potential towards CNS cytotoxic activity on undifferentiated SH-SY5Y neuroblastoma cells. […] On the other hand, the possibility for neuroprotective activity could not be tested with the applied experimental setup. As an additional bioassay on compounds 2a–d and 3a–d, their potential to interfere with the function of P-glycoprotein (P-gp) was tested. By transporting a wide variety of compounds from the CNS back into the blood stream, P-gp is an important element of the BBB [16]. […]
as §2, §3, §4
Evaluation of compounds effect on rhodamine 123 accumulation: Rd123 concentration inside L5178PAR and L5178MDR cells was determined by flow cytometry. […]

[6] = DPPH radical scavenging test; settings: microplate format
Experimental: Antioxidant activity: The radical scavenging capacity of dracocephins A and B were
tested in the microplate format of the 2,2-diphenyl-1-picrylhydrazyl (DPPH) assay.
Naringenin and quercetin were obtained from PhytoLab (Vestenbergsgreuth,
Germany), and used as controls. […]

[7] = first value in cell, read-out: pKa (first, lowest acidic)
[8] = second value in cell, read-out: pKa (second) (converted)
[9] = third value in cell, read-out: pKa (third) (converted)

Molecule | pKa [1, 7] | pKa [1, 8] | pKa [1, 9] | logP [2] | logD ([2]; pH 6.5, read-out: log D6.5) | logD ([2]; pH 7.4, read-out: log D7.4) | Papp at 4 h, 100 µM [3] [×10⁻⁶ cm/s] | IC50 at 48 h [4] [µM] | P-gp inhibition (rhodamine 123 accumulation) [5] | IC50 DPPH radical scavenging [6] [µg/mL]
O=C1CCC(c2c(O)cc3c(c2O)C(=O)CC(c2ccc(O)cc2)O3)N1 (stereo not drawn) [2a–d, 6-(2”-pyrrolidinone-5”-yl)naringenin] | 6.69 ± 0.01 | 9.47 | 12.3 | 2.52 ± 0.02 | 2.31 | 1.74 | 1.1 ± 0.1 | > 150 | none of the synthesized compounds inhibits this transporter | > 200
O=C1CCC(c2c(O)cc(O)c3c2OC(c2ccc(O)cc2)CC3=O)N1 (stereo not drawn) [3a–d, 8-(2”-pyrrolidinone-5”-yl)naringenin] | 6.54 | 9.54 | 12 | 2.39 ± 0.02 | 2.12 | 1.51 |  | > 150 | none of the synthesized compounds inhibits this transporter | > 200
O=c1c(O)c(-c2ccc(O)c(O)c2)oc2cc(O)cc(O)c12 [quercetin, reference compound] |  |  |  |  |  |  |  |  |  | 9.4 ± 0.6 (≈ 31.1 µM)
naringenin [(±)-1, reference compound] |  |  |  |  |  |  |  |  |  | > 200
